Results from patent US20110059174A1, “PKCdelta REGULATES NEUROINFLAMMATORY EVENTS” (IOWA STATE UNIVERSITY RESEARCH FOUNDATION, INC., priority 2009, published 2011).

How the values were obtained:
[1] = test system: BV-2 cells; test: TNFα release from BV-2 cells exposed to MMP-3 or MPP (Luminex); assay type: cell-based
Protocol: FIG. 6. MMP3-induces TNFα release in BV2 cells. […] After 24 h, the amount of TNFa released into the extracellular medium were determined in Luminex assays (see methods for details). n=6 ** p<0.01 compared to control.
(§1) Microglial cells are the primary immune cells in the CNS and are the major source of TNFα during neuroinflammation. Therefore, in this section, we examined the possible mechanisms that could regulate TNFα release during microglial activation. In particular, we examined whether PKCδ plays any role in the production and release of cytokines. For these studies, we used LPS as a microglial activator on BV2 cells, a widely used microglial cell line. BV-2 cells were exposed to LPS (1 μg/ml) in the presence or absence of PKCδ inhibitor rottlerin (1-3 μM). […] After 16 hr, cell-free supernatants were collected and TNFα levels were quantified using a multiplex bead-based luminex® assay system, as described in the methods.
Matrix metalloproteinases (MMPs) are a family of highly homologous protein-degrading zinc dependent endopeptidases. […] Therefore, we examined if MMP-3 could trigger TNFα release in BV-2 cells. […] Following 24 hr of MMP-3 treatment, supernatants were collected from extracellular medium and TNFα levels were determined using a Luminex immunoassay. […]

[2] = test system: BV-2 microglia; test: LPS induced cytokine release in BV-2 microglia (Luminex immunoassay); assay type: cell-based; conditions: BV-2 cells
Protocol: FIG. 1. […] BV-2 microglia were exposed to 1 μg/ml LPS with and without rottlerin (1 to 3 μM) for 16 hrs and cell free supernatants were collected.
BV-2 microglia were transfected with 20 nM PKCδ siRNA and non-specific siRNA. 24 hr later transfected cells were treated with LPS (1 μg/ml) for 16 hrs and cell free supernatants were collected. Specificity of PKCδ suppression was assessed by western blotting.
as §1
In this experiment, we examined whether PKCδ-siRNA mediated knockdown of PKCδ, would suppress LPS-induced TNFα release in BV-2 cells.

[3] = test system: primary mouse microglia; test: LPS-induced cytokine release from primary mouse microglia (Luminex immunoassay); assay type: cell-based
Protocol: FIG. 8. Effect of PKCδ inhibitor rottlerin on LPS-induced TNFα release from primary mouse microglia. Primary microglia were treated with 100 ng/ml LPS for 24 hr in the presence of PKCδ inhibitor rottlerin (1 μM and 3 μM). TNFα levels in the culture medium were quantified using a multiplex bead-based luminex® immunoassay. *** p<0.001 compared to controls; […] ### p<0.001 compared to LPS treatment; N=5.
FIG. 10. PKCδ inhibitor rottlerin suppresses pro-inflammatory cytokine release in primary mouse microglia. Primary microglia were isolated by differential adherence from post-natal mixed-glial cultures and purity verified to be more than 95% by immunocytochemistry. Primary microglia were treated with LPS (100 ng/ml) for 24 hrs or pre-treated with the PKCδ inhibitor rottlerin (1 μM) and then treated with LPS. After treatment, supernatants were collected and proinflammatory cytokine levels were assayed using a multiplexed luminex assay.
To extend the results obtained with the BV2 microglial cell line to primary microglia, we performed some preliminary studies in primary microglia isolated from post-natal day 2 (PND-2) C57 black mice as described previously (Floden et al. 2006). Briefly, the brain tissues from PND-2 mice were gently triturated in ice-cold Ca^2+ and Mg^2+-free HBSS. The cells were spun down and cultured using DMEM/F-12 medium containing 10% heat-inactivated FBS, antibiotics and essential nutrients, as described previously (Liu et al. 2002). After 12-14 days, microglia were harvested by the differential shaking method (350 rpm for 4 hr) and grown on poly-D lysine coated 24-well plates. Primary microglia were then fixed with 4% paraformaldehyde and processed for immunohistochemical staining using CD 11b (microglial marker) monoclonal antibody followed by Alexa 568-conjugated secondary antibody (red). Nuclei were stained with TO-PRO-3 dye (blue). The cells were viewed using a Nikon TE2000 microscope, and images were captured by SPOT digital camera. […] Additionally, we have established a microglia isolation procedure using magnetic labeled CD11b (MACs CD11b+) microbeads followed by AutoMACS cell sorting, which also yielded over 95% pure microglia.
We extended this study to primary microglia. CD11b+ primary microglia cultures were prepared, as described in the previous section. The primary microglial cultures were treated with 100 ng/ml LPS for 24 hr in the presence of various doses of the PKCδ inhibitor rottlerin (1 μM and 3 μM). TNFα levels in the culture medium were quantified using a multiplex bead-based Luminex® immunoassay. […] 3 μM rottlerin reduced LPS-induced TNFα release by 75%. Consistent with the BV2 cell line data presented in the original proposal, the new results provide further evidence that PKCδ can regulate TNFα release in primary microglia during neuroinflammation.
FIG. 10. PKCδ inhibitor rottlerin suppresses pro-inflammatory cytokine release in primary mouse microglia. Primary Microglia were isolated by differential adherence from post-natal mixed-glial cultures and purity verified to be more than 95% by immunocytochemistry. Primary microglia were treated with LPS (100 ng/ml) for 24 hrs or pre-treated with the PKCδ inhibitor rottlerin (1 μM) and then treated with LPS. After treatment, supernatants were collected and proinflammatory cytokine levels were assayed using a multiplexed luminex assay.

[4] = test system: PKCδ; conditions: dose range 1-3 μM; cited from earlier work
[5] = test system: nigral dopaminergic neurons; conditions: MPTP-induced animal model of Parkinson's disease; cited from earlier work
[6] = dose range 1-3 μM; cited from earlier work
[7] = test system: PKCδ promoter; test: PKCδ promoter luciferase reporter assay in BV-2 cells; assay type: cell-based, mouse
Excerpt: FIG. 4. PKCδ promoter structure and site-directed mutagenesis of NFkB binding sites. (A) The ˜2 kb fragment of mouse PKCδ promoter region (relative to the transcription start site) was cloned using genomic DNA prepared from MN9D cells by the fusion PCR technique. PKCδ promoter fragment was cloned into promoter-less pGL3-basic vector with a luciferase reporter gene (Luc). (B). Site-specific mutagenesis of two NFkB sites present in the PKCδ promoter region.
FIG. 5. Mutation of NFkB sites block TNFa induced PKCδ promoter activity. Briefly, BV2 cells, were transfected with promoter constructs coding for native or NFkB mutated PKCδ promoter (see FIG. 10). 12 h after transfection, cells were exposed to 30 ng/ml TNF with or without etanercept (ETA). 24 h later, cell lsyates were subject to luciferase assay.
Since PKCδ upregulation was observed during neuroinflammation (FIG. 4A), we sought to determine mechanisms that regulate PKCδ expression via transcriptional activation. We first cloned the full-length mouse PKCδ promoter (2 Kb) from genomic DNA using the fusion PCR technique (FIG. 5A). The resulting PKCδ promoter 2 Kb fragment was cloned into the promoter-less pGL3-luciferase reporter vector. Binding of the transcription factors to the PKCδ promoter region would result in the expression of luciferase enzyme. […]

[8] = LPS and rottlerin treated samples, data not shown
[9] = LPS-stimulated primary mouse microglia

Compound: C[n+]1ccc(-c2ccccc2)cc1 [MPP, 1-methyl-4-phenylpyridinium]
- TNFα release from BV-2 cells ([1]; 24 hr exposure to 300 μM, data not shown): failed to release TNFα

Compound: CC(=O)c1c(O)c(C)c(O)c(Cc2c(O)c3c(c(C(=O)/C=C/c4ccccc4)c2O)OC(C)(C)C=C3)c1O [rottlerin, 3-[(8-Cinnamoyl-5,7-dihydroxy-2,2-dimethyl-2H-1-benzopyran-6-yl)methyl]-2′,4′,6′-trihydroxy-5-methylaceophenone]
- LPS-induced TNFα release ([2]; LPS 1 μg/ml, rottlerin 1-3 μM, 16 hr): dose-dependently blocked
- LPS-induced IL-6 levels [2, 8]: no effect
- LPS-induced IL-12 levels [2, 8]: no effect
- release of IL-6 [3, 9]: decrease
- release of IL-12 [3, 9]: decrease
- reduction of LPS-induced TNFα release ([3]; primary microglia, 100 ng/ml LPS 24 hr, 3 μM rottlerin): 75%
- LPS-induced TNFα levels ([3]; primary microglia, 100 ng/ml LPS 24 hr, rottlerin 1 μM and 3 μM, dose dependent): significantly suppressed
- pro-inflammatory cytokine release ([3]; primary microglia, pre-treated with rottlerin 1 μM, LPS 100 ng/ml 24 hrs): suppresses
- PKCδ inhibition [4]: effectively inhibits PKCδ
- nigral dopaminergic neuronal death [5]: protects
- toxicity [6]: does not cause any toxicity

Compound: Etanercept
- TNFα-induced PKCδ promoter activity ([7]; BV-2 cells, 30 ng/ml TNF with etanercept, 24 h, luciferase): blocked

Compound: ProMMP3: inactive proMMP-3
- levels of TNFα compared to control ([1]; BV-2 cells, 400 ng/ml, 24 hr): did not induce any significant levels

Compound: TNFα
- PKCδ promoter activity ([7]; BV-2 cells expressing 148 bp minimal PKCδ promoter construct, 30 ng/ml TNF): significant increase
